Measured values: US20260297060A1, “COMPOUNDS FOR THE DEGRADATION OF MUTANT BRAF” (C4 THERAPEUTICS, INC., priority 2023, published 2026)
Like-named read-outs stand apart in the source and are kept apart here.

Columns and labels:
BRAF V600E = molecular target: T1, BRAF V600E (Homo sapiens, UniProt P15056+Q96SW2, V600E); assay: BRAF V600E HiBiT Degradation Assay; assay type: cell-based; settings: A375.10 cells, BRAF V600E
T1 construct: knock-in of the HiBiT tag to the endogenous BRAF V600E locus; host or cells: A375.10 (A375 clonal line, CRISPR HiBiT knock-in at the endogenous BRAF V600E locus)
T1 sequence (P15056 whole entry V600E): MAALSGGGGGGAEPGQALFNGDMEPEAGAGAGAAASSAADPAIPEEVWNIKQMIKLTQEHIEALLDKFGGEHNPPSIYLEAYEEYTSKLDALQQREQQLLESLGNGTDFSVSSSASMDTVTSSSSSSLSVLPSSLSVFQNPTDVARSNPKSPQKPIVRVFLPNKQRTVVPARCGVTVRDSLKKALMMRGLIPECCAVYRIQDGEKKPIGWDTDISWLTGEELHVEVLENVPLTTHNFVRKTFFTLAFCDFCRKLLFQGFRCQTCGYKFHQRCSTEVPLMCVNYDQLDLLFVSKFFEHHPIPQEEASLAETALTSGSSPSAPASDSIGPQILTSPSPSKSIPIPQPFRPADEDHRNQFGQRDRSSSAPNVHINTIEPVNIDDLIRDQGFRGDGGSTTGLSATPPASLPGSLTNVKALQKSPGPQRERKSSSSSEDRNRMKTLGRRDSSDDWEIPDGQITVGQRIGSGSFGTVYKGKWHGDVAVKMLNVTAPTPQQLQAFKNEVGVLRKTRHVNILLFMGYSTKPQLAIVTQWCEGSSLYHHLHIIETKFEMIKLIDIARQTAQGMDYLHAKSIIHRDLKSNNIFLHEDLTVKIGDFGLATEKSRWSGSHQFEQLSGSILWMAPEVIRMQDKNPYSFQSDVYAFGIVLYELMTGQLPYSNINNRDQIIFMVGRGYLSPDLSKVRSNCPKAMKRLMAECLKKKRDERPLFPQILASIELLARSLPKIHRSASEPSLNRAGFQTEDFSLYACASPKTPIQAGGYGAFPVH
T1 sequence (Q96SW2 whole entry): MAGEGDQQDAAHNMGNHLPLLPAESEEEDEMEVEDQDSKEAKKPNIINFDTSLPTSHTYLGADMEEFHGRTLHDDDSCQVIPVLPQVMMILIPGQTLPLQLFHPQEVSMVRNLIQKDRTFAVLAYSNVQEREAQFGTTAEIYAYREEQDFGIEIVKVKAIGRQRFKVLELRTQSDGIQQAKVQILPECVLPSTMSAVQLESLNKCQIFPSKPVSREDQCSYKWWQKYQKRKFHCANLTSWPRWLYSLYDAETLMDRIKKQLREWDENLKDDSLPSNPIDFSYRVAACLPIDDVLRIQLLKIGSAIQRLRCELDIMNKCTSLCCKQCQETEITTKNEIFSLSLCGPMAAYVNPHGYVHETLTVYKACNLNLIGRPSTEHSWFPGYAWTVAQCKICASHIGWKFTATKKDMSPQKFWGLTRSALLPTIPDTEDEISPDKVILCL
T1 sequence (Q16531 whole entry partner): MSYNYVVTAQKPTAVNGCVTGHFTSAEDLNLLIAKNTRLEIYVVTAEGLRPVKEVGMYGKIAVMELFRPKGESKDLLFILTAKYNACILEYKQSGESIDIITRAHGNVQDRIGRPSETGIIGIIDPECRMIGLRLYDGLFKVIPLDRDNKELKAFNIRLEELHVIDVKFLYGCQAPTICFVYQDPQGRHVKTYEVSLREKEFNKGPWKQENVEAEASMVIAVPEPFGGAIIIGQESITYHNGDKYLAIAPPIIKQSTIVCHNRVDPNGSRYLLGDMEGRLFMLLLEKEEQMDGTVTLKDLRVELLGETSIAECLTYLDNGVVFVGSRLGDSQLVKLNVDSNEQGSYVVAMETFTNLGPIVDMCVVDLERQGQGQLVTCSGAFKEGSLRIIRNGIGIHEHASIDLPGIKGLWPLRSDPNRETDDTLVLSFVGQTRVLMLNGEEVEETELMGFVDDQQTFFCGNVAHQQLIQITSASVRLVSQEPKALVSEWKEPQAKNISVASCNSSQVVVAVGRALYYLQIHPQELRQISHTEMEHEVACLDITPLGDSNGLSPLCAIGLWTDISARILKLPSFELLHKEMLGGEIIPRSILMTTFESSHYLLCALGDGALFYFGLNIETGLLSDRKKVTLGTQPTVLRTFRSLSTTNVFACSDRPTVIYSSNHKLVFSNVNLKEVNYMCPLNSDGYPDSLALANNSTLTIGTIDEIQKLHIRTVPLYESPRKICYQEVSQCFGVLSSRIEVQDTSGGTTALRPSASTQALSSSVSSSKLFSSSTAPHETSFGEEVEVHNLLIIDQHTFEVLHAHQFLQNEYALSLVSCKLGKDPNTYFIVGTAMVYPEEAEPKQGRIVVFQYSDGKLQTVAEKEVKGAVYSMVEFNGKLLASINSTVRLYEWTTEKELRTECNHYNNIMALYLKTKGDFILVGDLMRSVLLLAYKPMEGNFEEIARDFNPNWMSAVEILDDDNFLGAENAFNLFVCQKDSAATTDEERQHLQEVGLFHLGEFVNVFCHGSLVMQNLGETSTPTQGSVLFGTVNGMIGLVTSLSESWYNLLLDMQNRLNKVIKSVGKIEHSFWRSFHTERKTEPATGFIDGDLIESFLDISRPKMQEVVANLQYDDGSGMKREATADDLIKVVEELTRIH
Summary of the method: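 Endogenous HiBiT knock-in on BRAF V600E in A375 cells (clone A375.10); 11-point half-log series, top 10 μM, 2, 6 or 24 h at 37° C. Lytic HiBiT luminescence, background-subtracted, normalized to DMSO; 4-parameter fit gives DC50, Emax (residual protein) and IP (inflection point).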

A375-NRAS^Q61K cells = assay: CTGlo Cell Viability Assay, A375-NRAS^Q61K (A375.11) cells, 96 hours; assay type: cell-based, human; settings: Homo sapiens, 96 h, A375.11 (A375-NRAS^Q61K) cells; for Emax: lowest % viability achieved
Summary of the method: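 A375 cells carrying BRAF V600E and NRAS Q61K were seeded at 250 cells/well with a 10-point half-log dose series (max 10 μM final). After 96 h at 37 °C, viability was read as ATP luminescence (CellTiter-Glo), background-subtracted and normalized to DMSO (100%). GI50 from 4-parameter fit; Emax is the lowest % viability.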

[1] = 2 hours, inflection point, read-out: HiBiT-Degradation A375.10 BRAF 2 hours IP
[2] = 2 hours, read-out: HiBiT-Degradation A375.10 BRAF 2 hours DC50
[3] = 2 hours, residual protein remaining, read-out: HiBiT-Degradation A375.10 BRAF 2 hours Emax
[4] = HiBiT, 24 hours, read-out: HiBiT-Degradation A375.10 BRAF 24 hours DC50
[5] = HiBiT, 24 hours, read-out: HiBiT-Degradation A375.10 BRAF 24 hours Emax
[6] = HiBiT, 24 hours, read-out: HiBiT-Degradation A375.10 BRAF 24 hours IP
[7] = read-out: HiBiT-Degradation A375.10 BRAF 2 hours DC50, 2 hours
[8] = read-out: HiBiT-Degradation A375.10 BRAF 2 hours IP, 2 hours, inflection point

| Compound | DC50 (BRAF V600E; [1]) [µM] | DC50 (BRAF V600E; [2]) [µM] | Emax (BRAF V600E; [3]) [%] | GI50 (A375-NRAS^Q61K cells) [µM] | DC50 (BRAF V600E; [4]) [µM] | Emax (BRAF V600E; [5]) [%] | DC50 (BRAF V600E; [6]) [µM] | DC50 (BRAF V600E; [7]) [µM] | DC50 (BRAF V600E; [8]) [µM] | Emax (A375-NRAS^Q61K cells) [%] |
| --- | --- | --- | --- | --- | --- | --- | --- | --- | --- | --- |
| CCN(C)S(=O)(=O)Nc1ccc(F)c(Oc2ccc3ncc(OCC4CCN(C5CC6(C5)CN(c5cc7c(cc5F)c(N5CCC(=O)NC5=O)nn7C)C6)CC4)nc3c2)c1C#N [Compound 223, 7-[2-cyano-3-[[ethyl(methyl)sulfamoyl]amino]-6-fluoro-phenoxy]-2-[[1-[2-[3-(2,4-dioxohexahydropyrimidin-1-yl)-5-fluoro-1-methyl-indazol-6-yl]-2-azaspiro[3.3]heptan-6-yl]-4-piperidyl]methoxy]quinoxaline] | < 1 | < 1 | < 50 | 1 to 10 |  |  |  |  |  | 50 to 90 |
| CCN(C)S(=O)(=O)Nc1ccc(F)c(Oc2ccc3ncn(C4CC5(CCC(N6CC[C@H](c7cc8c(cc7F)c(N7CCC(=O)NC7=O)nn8C)C(F)(F)C6)CC5)C4)c(=O)c3c2)c1C#N (stereo partly drawn) [Compound 224, 6-[2-cyano-3-[[ethyl(methyl)sulfamoyl]amino]-6-fluoro-phenoxy]-3-[7-[(4R)-4-[3-(2,4-dioxohexahydropyrimidin-1-yl)-5-fluoro-1-methyl-indazol-6-yl]-3,3-difluoro-1-piperidyl]spiro[3.5]nonan-2-yl]-4-oxo-quinazoline] | < 1 | < 1 | < 50 | < 1 |  |  |  |  |  | 50 to 90 |
| CCN(C)S(=O)(=O)Nc1ccc(F)c(Oc2ccc3ncn(C4CC5(CCC(N6CC[C@@H](c7cc8c(cc7F)c(N7CCC(=O)NC7=O)nn8C)C(F)(F)C6)CC5)C4)c(=O)c3c2)c1C#N (stereo partly drawn) [Compound 225, 6-[2-cyano-3-[[ethyl(methyl)sulfamoyl]amino]-6-fluoro-phenoxy]-3-[7-[(4S)-4-[3-(2,4-dioxohexahydropyrimidin-1-yl)-5-fluoro-1-methyl-indazol-6-yl]-3,3-difluoro-1-piperidyl]spiro[3.5]nonan-2-yl]-4-oxo-quinazoline] | < 1 | < 1 | < 50 | < 1 |  |  |  |  |  | < 50 |
| CCN(C)S(=O)(=O)Nc1ccc(F)c(Oc2ccc3ncn(C4CC5(CCN(CC6(O)CCN(c7cc8c(cc7F)c(N7CCC(=O)NC7=O)nn8C)CC6)CC5)C4)c(=O)c3c2)c1C#N [Compound 226, 6-[2-cyano-3-[[ethyl(methyl)sulfamoyl]amino]-6-fluoro-phenoxy]-3-[7-[[1-[3-(2,4-dioxohexahydropyrimidin-1-yl)-5-fluoro-1-methyl-indazol-6-yl]-4-hydroxy-4-piperidyl]methyl]-7-azaspiro[3.5]nonan-2-yl]-4-oxo-quinazoline] | < 1 | < 1 | < 50 | < 1 | < 1 | < 50 | < 1 |  |  | 50 to 90 |
| CCN(C)S(=O)(=O)Nc1ccc(F)c(Oc2ccc3ncn(C4CC5(CC(N6CC[C@@H](c7cc8c(cc7F)c(N7CCC(=O)NC7=O)nn8C)C(F)(F)C6)C5)C4)c(=O)c3c2)c1C#N (stereo partly drawn) [Compound 227, 6-[2-cyano-3-[[ethyl(methyl)sulfamoyl]amino]-6-fluoro-phenoxy]-3-[2-[(4S)-4-[3-(2,4-dioxohexahydropyrimidin-1-yl)-5-fluoro-1-methyl-indazol-6-yl]-3,3-difluoro-1-piperidyl]spiro[3.3]heptan-6-yl]-4-oxo-quinazoline] | < 1 | < 1 | < 50 | 1 to 10 |  |  |  |  |  | 50 to 90 |
| CCN(C)S(=O)(=O)Nc1ccc(F)c(Oc2ccc3ncn([C@H]4COC5(CCN(CC6(O)CCN(c7cc8c(cc7F)c(N7CCC(=O)NC7=O)nn8C)CC6)CC5)C4)c(=O)c3c2)c1C#N [Compound 230, (3R)-3-[6-[2-cyano-3-[[ethyl(methyl)sulfamoyl]amino]-6-fluoro-phenoxy]-4-oxo-quinazolin-3-yl]-8-[[1-[3-(2,4-dioxohexahydropyrimidin-1-yl)-5-fluoro-1-methyl-indazol-6-yl]-4-hydroxy-4-piperidyl]methyl]-1-oxa-8-azaspiro[4.5]decane] | < 1 | < 1 | < 50 | < 1 | < 1 | < 50 | < 1 |  |  | 50 to 90 |
| CCN(C)S(=O)(=O)Nc1ccc(F)c(Oc2ccc3ncn([C@H]4COC5(CCN(CC6CN(c7cc8c(cc7F)c(N7CCC(=O)NC7=O)nn8C)C6)CC5)C4)c(=O)c3c2)c1C#N [Compound 231, (3R)-3-[6-[2-cyano-3-[[ethyl(methyl)sulfamoyl]amino]-6-fluoro-phenoxy]-4-oxo-quinazolin-3-yl]-8-[[1-[3-(2,4-dioxohexahydropyrimidin-1-yl)-5-fluoro-1-methyl-indazol-6-yl]azetidin-3-yl]methyl]-1-oxa-8-azaspiro[4.5]decane] | < 1 | < 1 | 50 to 90 | 1 to 10 | < 1 | < 50 | < 1 |  |  | 50 to 90 |

More lines, main results first:

| DC50 (BRAF V600E; [1]) [µM] | DC50 (BRAF V600E; [2]) [µM] | Emax (BRAF V600E; [3]) [%] | GI50 (A375-NRAS^Q61K cells) [µM] | DC50 (BRAF V600E; [4]) [µM] | Emax (BRAF V600E; [5]) [%] | DC50 (BRAF V600E; [6]) [µM] | DC50 (BRAF V600E; [7]) [µM] | DC50 (BRAF V600E; [8]) [µM] | Compound | Emax (A375-NRAS^Q61K cells) [%] |
| --- | --- | --- | --- | --- | --- | --- | --- | --- | --- | --- |
| < 1 | < 1 | < 50 | < 1 | < 1 | < 50 | < 1 |  |  | Cn1nc(N2CCC(=O)NC2=O)c2cc(F)c(N3CC4(CC(N5CCC6(CC5)C[C@@H](n5cnc7ccc(Oc8c(F)ccc(NS(=O)(=O)C9CC9)c8C#N)cc7c5=O)CO6)C4)C3)cc21 [Compound 234, N-[2-cyano-3-[3-[(3R)-8-[2-[3-(2,4-dioxohexahydropyrimidin-1-yl)-5-fluoro-1-methyl-indazol-6-yl]-2-azaspiro[3.3]heptan-6-yl]-1-oxa-8-azaspiro[4.5]decan-3-yl]-4-oxo-quinazolin-6-yl]oxy-4-fluoro-phenyl]cyclopropanesulfonamide] | 50 to 90 |
| < 1 | < 1 | < 50 | 1 to 10 |  |  |  |  |  | Cn1nc(N2CCC(=O)NC2=O)c2cc(F)c(N3CC4(CC(N5CCC6(CC5)C[C@@H](n5cnc7ccc(Oc8c(F)ccc(NS(=O)(=O)N9C[C@H]%10C[C@H]%10C9)c8C#N)cc7c5=O)CO6)C4)C3)cc21 [Compound 241, (1S,5R)-N-[2-cyano-3-[3-[(3R)-8-[2-[3-(2,4-dioxohexahydropyrimidin-1-yl)-5-fluoro-1-methyl-indazol-6-yl]-2-azaspiro[3.3]heptan-6-yl]-1-oxa-8-azaspiro[4.5]decan-3-yl]-4-oxo-quinazolin-6-yl]oxy-4-fluoro-phenyl]-3-azabicyclo[3.1.0]hexane-3-sulfonamide] | 50 to 90 |
| < 1 | 1 to 10 | 50 to 90 | > 10 |  |  |  |  |  | Cn1nc(N2CCC(=O)NC2=O)c2cc(F)c(N3CC4(CC(N5CCC6(CC5)C[C@@H](n5cnc7ccc(Oc8c(F)ccc(NS(=O)(=O)N9CCOCC9)c8C#N)cc7c5=O)CO6)C4)C3)cc21 [Compound 242, N-[2-cyano-3-[3-[(3R)-8-[2-[3-(2,4-dioxohexahydropyrimidin-1-yl)-5-fluoro-1-methyl-indazol-6-yl]-2-azaspiro[3.3]heptan-6-yl]-1-oxa-8-azaspiro[4.5]decan-3-yl]-4-oxo-quinazolin-6-yl]oxy-4-fluoro-phenyl]morpholine-4-sulfonamide] | 50 to 90 |
|  |  | 50 to 90 | < 1 |  |  |  | < 1 | < 1 | Cn1nc(N2CCC(=O)NC2=O)c2cc(F)c(N3CC4(CC(N5CCC6(CC5)C[C@@H](n5cnc7ccc(Oc8c(F)ccc(NS(=O)(=O)N9CCC%10(CC%10)C9)c8C#N)cc7c5=O)CO6)C4)C3)cc21 [Compound 245, N-[2-cyano-3-[3-[(3R)-8-[2-[3-(2,4-dioxohexahydropyrimidin-1-yl)-5-fluoro-1-methyl-indazol-6-yl]-2-azaspiro[3.3]heptan-6-yl]-1-oxa-8-azaspiro[4.5]decan-3-yl]-4-oxo-quinazolin-6-yl]oxy-4-fluoro-phenyl]-5-azaspiro[2.4]heptane-5-sulfonamide] | 50 to 90 |
|  |  | < 50 | 1 to 10 |  |  |  | < 1 | < 1 | CC(C)S(=O)(=O)Nc1ccc(F)c(Oc2ccc3ncc(C4CC5(CCN(C6CC7(C6)CN(c6cc8c(cc6F)c(N6CCC(=O)NC6=O)nn8C)C7)CC5)C4)nc3c2)c1C#N (stereo not drawn) [Compound 247, N-[2-cyano-3-[3-[7-[2-[3-(2,4-dioxohexahydropyrimidin-1-yl)-5-fluoro-1-methyl-indazol-6-yl]-2-azaspiro[3.3]heptan-6-yl]-7-azaspiro[3.5]nonan-2-yl]quinoxalin-6-yl]oxy-4-fluoro-phenyl]propane-2-sulfonamide] | 50 to 90 |
